Measurements: patent US20260248799A1, “COMBINATIONS OF RETINALDEHYDE DEHYDROGENASE 1 (RALDH1) INHIBITORS AND IMMUNOSTIMULATORS AND METHODS USING SAME” (The Trustees of the University of Pennsylvania, priority 2023, published 2026)
One block for each molecule: values may come before it.

Legend:
Huh7 tumors = Huh7 tumors in NU/J mice; format: in vivo, mouse; conditions: Huh7
Method: FIGS. 26A-26H: Raldh1-INH suppresses HCC growth by altering macrophage functions. FIG. 26A: Huh7 tumor-bearing NU/J mice were treated with C86 (i.p, 10 mg/kg) every day starting when tumor size was approximately 50 mm^3. Tumor volume was measured every 2 days. […] Three or more independent experiments were performed with at least three replicates per experimental group. Unpaired t test, two-tailed. FIG. 26B: AldeRed assay at endpoint on Huh7 tumor treated as described in FIG. 26A. […] Three or more independent experiments were performed with at least three replicates per experimental group. Unpaired t test, two-tailed. FIG. 26C: Huh7 tumor-bearing nude mice were treated with different dose of C86 every day. Tumor volume was measured every 2-3 days. […] Two independent experiments were performed with at least three replicates per experimental group. Unpaired t test, two-tailed. FIG. 26D: Body weight measured every 3-5 days for the experiment outlined in FIG. 26C. FIG. 26E: Parental Huh7 or RALDH1-KO Huh7 cells were implanted subcutaneously into NU/J mice and treated with C86 (i.p, 10 mg/kg) or vehicle (control) every day. […] Three or more independent experiments were performed with at least three replicates per experimental group. Unpaired t test, two-tailed. FIG. 26F: Huh7 tumor-bearing NU/J mice were treated with clodronate liposomes (CloLipo) and/or C86. […] Two independent experiments were performed with at least three replicates per experimental group. Unpaired t test, two-tailed. FIG. 26G: Murine Hepa 1-6 tumors were implanted subcutaneously into C57BL6/J WT mice or LyMCre:RosadnRAR mice. Expression of the dominant negative RAR in myeloid cells slows tumor growth. Two independent experiments were performed with at least three replicates per experimental group. Unpaired t test, two-tailed. FIG. 26H: Huh7 cells were implanted subcutaneously into NU/J mice. When tumor size reached about 50 mm^3, mice were intraperitoneally injected vehicle (control) or C86 daily with or without BMS493 treatment intratumorally every 3 days. BMS493 and C86 suppress tumor growth with the combination showing higher suppression than monotherapy. *, P<0.05; **, P<0.01; ***, P<0.001; n.s., not significant.
Cultured Huh7, Huh1, Hepa 1-6, Hep55, and FS (as indicated in figure legends) tumor cells were detached using 0.25% trypsin (Gibco, catalog #25200056), washed once with 1×PBS, and counted before implantation. 3~6×10^6 tumor cells were implanted subcutaneously (s.c.) into shaved flanks of recipient mice. Tumor dimensions were measured using a caliper starting at the day indicated in the accompanying figure legend and every two to three days thereafter; volume was calculated by using formula Length*Width^2/2. Tumor volumes of 2,000 mm^3, tumor length of 2 cm or tumor ulceration were used as endpoints for survival analyses.
Compound-86, 97 and 99 powder was dissolved in 20% HPβCD saline (2-Hydroxypropyl)-[…]). Drug was administered i.p. or p.o. starting when tumor volume reached 50-150 mm^3 and repeated every day.

human HCC lines = assay: Human HCC lines cocultured with pretreated macrophages; format: cell-based; conditions: macrophages exposed to BMS493
Method: (§1) FIGS. 24A-24E: Raldh1-INH blocks tumor supportive functions of monocytes and macrophages. FIG. 24A: Circulating primary human monocytes were collected from donors and cultured with MCSF (50 ng/mL) to generate macrophages. On day 3 of these cultures, DMSO or RA (100 nmol/L) was added to generate control monocyte-derived macrophages (Control-MoDM) or RA monocyte-derived macrophages (RA-MoDM), respectively. On day 7 of these cultures, macrophages were collected for each well after washing with 1×PBS, mixed with Huh7 cells at approximately 50:50 ratio, and the mix injected into the flanks of NU/J mice. Huh7 tumors cells that were not mixed with any macrophages before flank injection served as an additional control. Tumor volume was measured every 2 days (left graph). 19 days after tumor injection, mice were sacrificed and tumor weight (right graph) was measured. […] Three or more independent experiments were performed with at least three replicates per experimental group. Unpaired t test, two-tailed. […] Tumor growth was monitored daily (left graph). 13 days after tumor cell transplantation, mice were sacrificed and tumor weight measured (right graph). […] Three days later, cells were harvested, counted, and stained with PI for FCS analyses. […] Cell proliferation was measured by counting live cell numbers (y-axis). […] 72 hours later, the cells were washed, counted, and analyzed by FCS. […]

[1] = test system: macrophages from primary human monocytes; assay: Numbers of live monocyte-derived macrophages in vitro; format: cell-based; conditions: C86 treated TCM or BMS493; three days
Method: as §1

SNU398 human HCC cells = assay: AldeRed (Aldefluor) assay in SNU398 cells; format: cell-based
Method: The AldeRed assay (EMD Millipore) was performed according to manufacturer's instructions to identify cells with ALDH activity. In brief, single-cell suspensions of Huh7, Huh1, SNU449, SNU398, HEP3B, PLC, Hepa 1-6, Hep55, and AL458A cultured cells or single-cell suspension generated from enzymatic digestion of tumors generated from transplantation of these cells in mice (as indicated in figure legends) were incubated with a fluorescent and non-toxic ALDH substrate (AldeRed 588-A); the fluorescent product accumulates in cells proportional to their ALDH activity. The amount of fluorescence produced is measured by flow cytometry. The ALDH inhibitor diethylaminobenzaldehyde (DEAB, provided with the AldeRed assay kit) was used as a negative control for background fluorescence assessment.
(§2) The Aldefluor assay has been used to identify and isolate cells with high ALDH activities. This assay is based on the principle that ALDH can convert the ALDH-substrate, Bodipy-aminoacetaldehyde (BAAA) into Bodipy-aminoacetate (BAA) which is retained inside the cells. BAAA is uncharged and can diffuse freely into intact viable cells, however BAA cannot cross the membrane due to its net negative charge, which makes remain in the cells and the assay buffer prevents efflux of the BAA from the cells. Therefore, the amount of BAA fluorescence in cells is proportional to ALDH activity and can be measured using a flow cytometer. A specific inhibitor of ALDH, diethylaminobenzaldehyde (DEAB), is used for background fluorescence control.

hALDHIA1 = biological target: T1, hALDHIA1 (Homo sapiens, UniProt P00352); assay: hALDH1A1 inhibition (Table 4); format: biochemical
T1 sequence (P00352 1-501): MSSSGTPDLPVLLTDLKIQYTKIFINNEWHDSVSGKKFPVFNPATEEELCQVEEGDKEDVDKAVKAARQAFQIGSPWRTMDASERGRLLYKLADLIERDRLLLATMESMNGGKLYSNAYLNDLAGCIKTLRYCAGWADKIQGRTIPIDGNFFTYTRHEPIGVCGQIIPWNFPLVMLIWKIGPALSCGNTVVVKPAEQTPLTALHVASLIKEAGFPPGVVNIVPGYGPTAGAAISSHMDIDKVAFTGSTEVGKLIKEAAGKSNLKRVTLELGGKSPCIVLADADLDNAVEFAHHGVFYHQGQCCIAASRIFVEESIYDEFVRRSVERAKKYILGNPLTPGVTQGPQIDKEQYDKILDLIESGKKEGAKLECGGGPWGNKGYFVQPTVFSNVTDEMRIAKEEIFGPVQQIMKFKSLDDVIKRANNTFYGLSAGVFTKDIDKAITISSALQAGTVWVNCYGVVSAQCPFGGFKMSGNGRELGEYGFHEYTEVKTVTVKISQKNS
Method: (§3) Compounds ALDH inhibitory effects of C-9125, C-9163, and C-9175 were evaluated in a number of cell lines, including MiaPaCa2 and OV90 cell lines, utilizing the AldeFlour assay described elsewhere herein (Table 4).

MiaPaCa2 cells = assay: AldeFlour assay in MiaPaCa2 cells; format: cell-based; conditions: Homo sapiens, MIA PaCa-2, read-out: MiaPaCa cells IC50
From the text: as §2, §3

[2] = test system: SNU398 (human HCC cell line); assay: LC-MS for ATRA in SNU398 cells; conditions: C86 100 nmol/L, WIN18446 1,000 nmol/L, 24 hours
[3] = test system: Hepa1-6 (mouse HCC cell line); assay: LC-MS for ATRA in Hepa1-6 cells; conditions: 1,000 nmol/L, 24 hours

Structure (SMILES): CC1(C)CC=C(C#Cc2ccccc2)c2cc(/C=C/c3ccc(C(=O)O)cc3)ccc21 [BMS 493, (E)-4-(2-(5,5-dimethyl-8-(phenylethynyl)-5,6-dihydronaphthalen-2-yl)vinyl)benzoic acid, reference compound]
tumor mass and volume (Huh7 tumors; intraperitoneal administration, compared to a control (FIGS. 12B-12C)): significant reduction in tumor mass and volume
increase of tumor cell numbers by RA pre-treated macrophages (human HCC lines): this effect was reversed
RA and tumor-CM induced increase in macrophage numbers [1]: reversed

Structure (SMILES): N#CC1(c2ccccc2)CCN(c2c(C(=O)N[C@H]3CC[C@H](O)CC3)cnc3ccc(F)cc23)CC1 [Compound C-97, 4-(4-cyano-4-phenylpiperidin-1-yl)-6-fluoro-N-((1r,4r)-4-hydroxycyclohexyl)quinoline-3-carboxamide]
tumor mass and volume (Huh7 tumors; C-86 versus C-97 (FIGS. 17A-17B)): significant reduction in tumor mass and volume
tumor suppressive activity relative to C-86 (Huh7 tumors; FIGS. 17A-17B): enhanced tumor suppressive activity as compared to C-86
ALDH activity compared to the DMSO control (SNU398 human HCC cells; SNU398, 1 nM): partial inhibition
concentration giving essentially complete inhibition of ALDH (SNU398 human HCC cells; SNU398, Aldefluor assay): ≥ 10 nM

Structure (SMILES): O=C(NCCCCCCCCNC(=O)C(Cl)Cl)C(Cl)Cl [WIN18446]
ATRA by LC-MS (RALDH1 inhibition) [2]: inhibits both murine and human RALDH1
ATRA by LC-MS (RALDH1 inhibition) [3]: inhibits both murine and human RALDH1

Results, then the molecule that gave them:

IC50 (hALDHIA1): 7 nM
IC50 (MiaPaCa2 cells): 130 nM
Structure (SMILES): N#CC1(c2ccc(-c3c(C(=O)N[C@H]4CC[C@H](O)CC4)cnc4ccc(F)cc34)cc2)CC1 [Compound C-9125, 4-(4-(1-cyanocyclopropyl)phenyl)-6-fluoro-N-((1r,4r)-4-hydroxycyclohexyl)quinoline-3-carboxamide]

IC50 (hALDHIA1): 4 nM
IC50 (MiaPaCa2 cells): 93 nM
Structure (SMILES): N#CC1(c2ccc(-c3c(C(=O)Nc4cnn(CCO)c4)cnc4ccc(F)cc34)cc2)CC1 [Compound C-9163, 4-(4-(1-cyanocyclopropyl)phenyl)-6-fluoro-N-(1-(2-hydroxyethyl)-1H-pyrazol-4-yl)quinoline-3-carboxamide]

IC50 (hALDHIA1): 6 nM
IC50 (MiaPaCa2 cells): 12 nM
Structure (SMILES): N#CC1(c2ccccc2)CCN(c2c(C(=O)Nc3cnn(CCO)c3)cnc3ccc(F)cc23)CC1 [Compound C-9175, 4-(4-cyano-4-phenylpiperidin-1-yl)-6-fluoro-N-(1-(2-hydroxyethyl)-1H-pyrazol-4-yl)quinoline-3-carboxamide]
